From patent US20230391742A1, “SMALL MOLECULE COMPOUND AND USE AND COMPOSITION THEREOF” (SOOCHOW UNIVERSITY, priority 2021, published 2023)

Experiments:
SKOV3 cells [1] = assay: Clonal colony formation experiment in SKOV3 cells; format: cell-based, human; conditions: NAI-008 20 μM combined with cisplatin or doxorubicin (0-40 μM), SKOV3, FIG. 2B
Procedure: (§1) SKOV3 cell line: purchased from ATCC, an ovarian cancer tumor cell line that positively expresses NAC1.
(§2) The culture method of SKOV3 cell line was as follows: the cells were inoculated in DMEM (InVitrogen) medium containing 10% calf serum, and placed in a CO2 incubator with a volume fraction of 5% at 37° C., cultivated for two weeks.
In this example, conventional clonal colony formation experiments were used. The specific method included the following:
SKOV3 cells were treated according to the experimental requirements for 24-48 hours, digested with trypsin, and the cell suspension was repeatedly pipetted to make the cells fully dispersed. The percentage of single cells were above 95%, and counted on a hemocytometer. Based on a concentration of 2000 cells per dish, 2 ml of cell suspension was inoculated into the culture dish, so that the cells were evenly dispersed. Culturing in 37° C., 5% CO2 for 7 to 14 days, with fresh medium from time to time. Observation under an inverted microscope. When macroscopic colonies appeared in the petri dish, the culture was terminated, the medium was discarded, and PBS was used to rinse twice. Crystal violet staining for 20 minutes. The results were analyzed after 2-3 washes with PBS.

NAC1 protein dimer = target: T1, NAC1 protein dimer (Homo sapiens, UniProt Q96RE7); assay: Dimer formation of NAC1 protein detected by immunoprecipitation and immunoblotting; format: biochemical; conditions: FIG. 1
T1 sequence (Q96RE7 1-527): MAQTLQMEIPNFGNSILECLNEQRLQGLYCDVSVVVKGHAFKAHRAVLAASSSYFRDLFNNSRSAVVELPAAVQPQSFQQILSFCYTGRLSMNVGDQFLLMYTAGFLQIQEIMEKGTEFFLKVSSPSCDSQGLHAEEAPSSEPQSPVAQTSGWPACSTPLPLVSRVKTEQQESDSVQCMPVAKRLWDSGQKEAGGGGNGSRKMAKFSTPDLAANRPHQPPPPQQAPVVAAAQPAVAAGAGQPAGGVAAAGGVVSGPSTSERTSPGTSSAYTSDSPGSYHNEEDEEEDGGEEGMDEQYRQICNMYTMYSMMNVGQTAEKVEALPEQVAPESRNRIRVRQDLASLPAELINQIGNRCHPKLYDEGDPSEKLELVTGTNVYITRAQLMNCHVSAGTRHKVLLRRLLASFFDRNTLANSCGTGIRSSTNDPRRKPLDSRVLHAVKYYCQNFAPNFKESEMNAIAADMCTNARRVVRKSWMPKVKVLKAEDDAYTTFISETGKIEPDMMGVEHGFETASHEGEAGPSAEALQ
Source text: For the selected NAI-008 (self-synthesized), the dimer formation of the target NAC1 protein by small molecule compounds was detected by immunoprecipitation technology and immunoblotting.

SKOV3 cells [2] = assay: Immunoblot of cleaved PARP (apoptosis) in SKOV3 cells; format: cell-based, human
Procedure: The ovarian cancer cell line SKOV3 cells were plated into 24-well plates at a density of 20,000 cells/well, and after 16-24 hours of incubation, NAI-008 was added to a final concentration of 20 μM. After 4 hours, additional cisplatin or doxorubicin was added to a final concentration of 20 μM. After 48 hours, the expression of PARP cleaved by apoptotic protein was detected by immunoblotting.

SKOV3 cells [3] = assay: MTT cell growth assay in SKOV3 cells; format: cell-based, human
Procedure: as §1, §2
This embodiment used a conventional MTT method. The specific method included following:
SKOV3 cells were plated overnight in 96-well plates at a density of 3000 cells/well. […] After 48 hours, 10 μl of MTT (5 mg/ml) was added to each well, and the supernatant was discarded after incubation at 37° C. for 4 hours. After dissolving the purple crystal with 150 μl of dimethyl sulfoxide, the plates were placed in a microplate reader (Bio-Rad Company) to detect the absorbance at 570 nm.

CC(C)(C)c1ccc(OCC(=O)NCC(=O)c2ccc(OC(=O)c3ccc4c(c3)OCO4)cc2)cc1 [NAI-008]
enhancement of cell proliferation inhibition by cisplatin and doxorubicin (colony formation) (SKOV3 cells [1]): significantly enhances the inhibition of cell growth and proliferation by cisplatin and doxorubicin | formation of NAC1 protein dimer (NAC1 protein dimer): inhibits the formation of NAC1 protein dimer | expression of apoptotic proteins (cleaved PARP) versus cisplatin or doxorubicin alone (SKOV3 cells [2]; NAI-008 20 μM plus cisplatin or doxorubicin 20 μM, SKOV3, 48 hours, FIG. 2C): significantly higher | apoptosis, compound alone (SKOV3 cells [2]; NAI-008 alone, SKOV3): did not cause significant apoptosis | toxic effects on cells, single application (SKOV3 cells [3]; NAI-008 alone, SKOV3, FIGS. 2A and 2B): did not cause significant toxic effects on cells | enhancement of cell growth inhibition by cisplatin and doxorubicin (MTT) (SKOV3 cells [3]; NAI-008 at final concentration 20 uM combined with cisplatin or doxorubicin (0-40 μM), SKOV3, 48 hours, FIG. 2A): significantly enhances the inhibition of cell growth and proliferation by cisplatin and doxorubicin | enhancement of inhibitory effect of cisplatin on proliferation of SKOV3 (MTT screening) (SKOV3 cells [3]; second-round screening, combination with cisplatin, SKOV3): strongly enhances the inhibitory effect of cisplatin on the proliferation of ovarian cancer cell line SKOV3
